# Source: publication PMC8204404 (Structure(London, England:1993), 2021)
# Non-standard residues stand in square brackets, D forms with d. Residues, ends and D or L forms follow the SMILES beside them. No end group written: not given here. *: point of attachment. 5FAM = O=C1OC2(c3ccc(O)cc3Oc3cc(O)ccc32)c2ccc(C(=O)*)cc21; pT = C[C@@H](OP(=O)(O)O)[C@H](N)C(=O)O; pS = N[C@@H](COP(=O)(O)O)C(=O)O
# T1: CHK1-KD (CHK1 construct consisting of only the kinase domain, CHK1(1-290)) (Homo sapiens, UniProt O14757)
# T1 sequence (O14757 1-290): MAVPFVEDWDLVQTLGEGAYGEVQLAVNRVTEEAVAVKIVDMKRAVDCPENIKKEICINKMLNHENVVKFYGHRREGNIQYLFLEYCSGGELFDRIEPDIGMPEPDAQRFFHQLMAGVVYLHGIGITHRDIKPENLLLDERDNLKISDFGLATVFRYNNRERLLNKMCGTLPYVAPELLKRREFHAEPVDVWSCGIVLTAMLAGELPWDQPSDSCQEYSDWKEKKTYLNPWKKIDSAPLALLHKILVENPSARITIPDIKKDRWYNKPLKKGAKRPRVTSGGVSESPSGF
# T2: CHK1-KD (CHK1 construct consisting of only the kinase domain) (Homo sapiens, UniProt O14757)
# T2 sequence (O14757 1-290): T1 sequence (O14757 1-290)
# T3: CHK1 kinase domain (CHK1-KD), STREP-(3C)-CHK1(1–290)-HIS (human, UniProt O14757 1-290)
# T3 sequence: T1 sequence (O14757 1-290)
# B1: Flu-CLASPIN_pS945 peptide (peptide)
# peptide: GGMEELLNLCSGKFTSQ
# modifications: not fully specified
# B2: Flu-CLASPIN_pS982 peptide (peptide)
# peptide: GGMEEALALCSGSFPTD
# modifications: not fully specified; fluorescein on the N-terminus; phosphoserine at 982 (pS982)
# B3: Flu-CLASPIN_pT916 peptide (peptide)
# peptide: GGMDELLDLCTGKFTSQ
# modifications: not fully specified; fluorescein on the N-terminus; phosphothreonine at 916 (pT916)
# B4: full-length CHK1, STREP-(3C)-CHK1-HIS, treated with λ-phosphatase (enzyme)
# chain: MAVPFVEDWDLVQTLGEGAYGEVQLAVNRVTEEAVAVKIVDMKRAVDCPENIKKEICINKMLNHENVVKFYGHRREGNIQYLFLEYCSGGELFDRIEPDIGMPEPDAQRFFHQLMAGVVYLHGIGITHRDIKPENLLLDERDNLKISDFGLATVFRYNNRERLLNKMCGTLPYVAPELLKRREFHAEPVDVWSCGIVLTAMLAGELPWDQPSDSCQEYSDWKEKKTYLNPWKKIDSAPLALLHKILVENPSARITIPDIKKDRWYNKPLKKGAKRPRVTSGGVSESPSGFSKHIQSNLDFSPVNSASSEENVKYSSSQPEPRTGLSLWDTSPSYIDKLVQGISFSQPTCPDHMLLNSQLLGTPGSSQNPWQRLVKRMTRFFTKLDADKSYQCLKETCEKLGYQWKKSCMNQVTISTTDRRNNKLIFKVNLLEMDDKILVDFRLSKGDGLEFKRHFLKIKGKLIDIVSSQKIWLPAT
# Legend:
# [1] = molecular target: T1, CHK1-KD (CHK1 construct consisting of only the kinase domain, CHK1(1-290)); test: Fluorescence polarization binding of CLASPIN peptides to CHK1-KD; conditions: FP, phosphorylated peptide
# [2] = molecular target: T2, CHK1-KD (CHK1 construct consisting of only the kinase domain); type: binding
# [3] = molecular target: T3, CHK1 kinase domain (CHK1-KD), …; test: fluorescence polarisation
# [4] = molecular target: B1; test: fluorescence polarisation
Molecule,affinity for CHK1-KD (in words) [1],binding result [3],further results
CSCC[C@H](NC(=O)CNC(=O)CNC(=O)c1ccc2c(c1)C(=O)OC21c2ccc(O)cc2Oc2cc(O)ccc21)C(=O)N[C@@H](CCC(=O)O)C(=O)N[C@@H](CCC(=O)O)C(=O)N[C@@H](C)C(=O)N[C@@H](CC(C)C)C(=O)N[C@@H](C)C(=O)N[C@@H](CC(C)C)C(=O)N[C@@H](CS)C(=O)N[C@@H](COP(=O)(O)O)C(=O)NCC(=O)N[C@@H](CO)C(=O)N[C@@H](Cc1ccccc1)C(=O)N1CCC[C@H]1C(=O)N[C@H](C(=O)N[C@@H](CC(=O)O)C(=O)O)[C@@H](C)O [pS982] (5FAM-GGMEEALALC[pS]GSFPTD-OH),high nanomolar range,,
CSCC[C@H](NC(=O)CNC(=O)CNC(=O)c1ccc2c(c1)C(=O)OC21c2ccc(O)cc2Oc2cc(O)ccc21)C(=O)N[C@@H](CC(=O)O)C(=O)N[C@@H](CCC(=O)O)C(=O)N[C@@H](CC(C)C)C(=O)N[C@@H](CC(C)C)C(=O)N[C@@H](CC(=O)O)C(=O)N[C@@H](CC(C)C)C(=O)N[C@@H](CS)C(=O)N[C@H](C(=O)NCC(=O)N[C@@H](CCCCN)C(=O)N[C@@H](Cc1ccccc1)C(=O)N[C@H](C(=O)N[C@@H](CO)C(=O)N[C@@H](CCC(N)=O)C(=O)O)[C@@H](C)O)[C@@H](C)OP(=O)(O)O [pT916] (5FAM-GGMDELLDLC[pT]GKFTSQ-OH),high nanomolar range,,
MEELLNLC[pS]GKFTSQ [CLASPIN pS945 peptide],,,effect on affinity of CHK1-KD for CDC25C substrate peptide [2]: no significant difference
CSCC[C@H](NC(=O)CNC(=O)CNC(=O)c1ccc2c(c1)C(=O)OC21c2ccc(O)cc2Oc2cc(O)ccc21)C(=O)N[C@@H](CCC(=O)O)C(=O)N[C@@H](CCC(=O)O)C(=O)N[C@@H](CC(C)C)C(=O)N[C@@H](CC(C)C)C(=O)N[C@@H](CC(N)=O)C(=O)N[C@@H](CC(C)C)C(=O)N[C@@H](CS)C(=O)N[C@@H](COP(=O)(O)O)C(=O)NCC(=O)N[C@@H](CCCCN)C(=O)N[C@@H](Cc1ccccc1)C(=O)N[C@H](C(=O)N[C@@H](CO)C(=O)N[C@@H](CCC(N)=O)C(=O)O)[C@@H](C)O [pS945] (5FAM-GGMEELLNLC[pS]GKFTSQ-OH),high nanomolar range,,
B1,,binds,
B2,,binds,
B3,,binds,
B4,,,fold lower affinity than CHK1-KD [4]: 2 fold
